Values quoted from earlier work, collected in patent US9669111B2, “Device for the diagnosis of inflammatory tissues in dental applications” (THOMMEN MEDICAL AG, priority 2012, dated 2017).
Structures can show the parent of a compound that is named as a salt.

Key:
[1] = tested on: human volunteers (bitter taste); settings: reciprocal of the dilution barely noticed as bitter; reference for calibration
human tongue = settings: for concentration sensed down to (taste recognition): human tongue, average human

Row | Compound | concentration sensed down to (taste recognition) (human tongue) | also measured
1 | C=C[C@H]1C[N@@]2CC[C@H]1C[C@H]2[C@H](O)c1ccnc2ccc(OC)cc12 [quinine-HCl] |  | bitter value [1]: 200,000
2 | C=C[C@H]1C[N@@]2CC[C@H]1C[C@H]2[C@H](O)c1ccnc2ccc(OC)cc12 [quinine] |  | sensory recognition threshold (human tongue; human): about 0.0004 mmol/L
3 | O=C1NS(=O)(=O)c2ccccc21 [saccharin] | 0.02 mM | 
4 | C=C[C@H]1C[N@@]2CC[C@H]1C[C@H]2[C@H](O)c1ccnc2ccc(OC)cc12 [Quinine sulfate] | 0.0004 mM | 
